Test results reported in US7494996B2 (priority 2000, dated 2009).

What was measured:
Sphaerotheca fuliginea = assay: Cucumber Powdery Mildew (CPM) protectant test in the greenhouse; assay type: in vivo; conditions: 100 is total disease control, 0 is no disease control; for pest or weed control at 300 g/ha: Podosphaera fuliginea, topical, 168 h, read-out: Cucumber Powdery Mildew (CPM) protectant fungicide data, percent control; for Cucumber Powdery Mildew (CPM) protectant fungicide data, percent control: 300 g/ha
Summary of the method: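 Protectant format: one day after spraying with test compound (A/M/W 1:1:2), cotyledon-plus-one-leaf cucumber plants were misted with Sphaerotheca spores at 2×10^5/ml. Greenhouse disease development; percent control scored at day 7 (100 = total, 0 = none).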

Pyricularia oryzae = assay: whole plant or invertebrate; assay type: in vivo; conditions: 100 is total disease control, 0 is no disease control; for pest or weed control at 300 g/ha: Pyricularia oryzae, topical, 144 h, read-out: Rice Blast (RB) protectant fungicide data, percent control, protectant, 300 g/ha, greenhouse; for Rice Blast (RB) protectant fungicide data, percent control: 300 g/ha, greenhouse

CCCCN1N=C(c2ccc(Cl)c(Cl)c2)NCC1=S [Compound 17, 1-Butyl-3-(3,4-dichlorophenyl)-4,5-dihydro-1,2,4-triazin-6-thione]
pest or weed control at 300 g/ha (Sphaerotheca fuliginea): 80% | pest or weed control at 300 g/ha (Pyricularia oryzae): 99%

O=C1CNC(c2ccc(C(F)(F)F)cc2)=NN1CC(F)(F)F [Compound 51]
Cucumber Powdery Mildew (CPM) protectant fungicide data, percent control (Sphaerotheca fuliginea): 0 percent control | Rice Blast (RB) protectant fungicide data, percent control (Pyricularia oryzae): 90 percent control

CCCCN1N=C(c2ccc(Cl)c(Cl)c2)N(Cc2ccc(OC)cc2)CC1=O [Compound 199]
Cucumber Powdery Mildew (CPM) protectant fungicide data, percent control (Sphaerotheca fuliginea): 0 percent control | Rice Blast (RB) protectant fungicide data, percent control (Pyricularia oryzae): 90 percent control

CCCCN1N=C2C=CC(c3ccc(Cl)cc3)=NN2CC1=O [Compound 229]
pest or weed control at 300 g/ha (Sphaerotheca fuliginea): 50% | pest or weed control at 300 g/ha (Pyricularia oryzae): 0%

C#CCN1CC(=O)N(CC(F)(F)F)N=C1c1cc(Cl)cc(Cl)c1 [Compound 169]
Cucumber Powdery Mildew (CPM) protectant fungicide data, percent control (Sphaerotheca fuliginea): 0 percent control | Rice Blast (RB) protectant fungicide data, percent control (Pyricularia oryzae): 50 percent control

CCC#CCN1N=C(c2ccc(Cl)c(Cl)c2)NCC1=O [Compound 210]
Cucumber Powdery Mildew (CPM) protectant fungicide data, percent control (Sphaerotheca fuliginea): 25 percent control | Rice Blast (RB) protectant fungicide data, percent control (Pyricularia oryzae): 100 percent control

COc1c(Br)cc(C2=NN(CC(F)(F)F)C(=O)CN2)cc1Br [Compound 158]
Cucumber Powdery Mildew (CPM) protectant fungicide data, percent control (Sphaerotheca fuliginea): 0 percent control | Rice Blast (RB) protectant fungicide data, percent control (Pyricularia oryzae): 85 percent control

O=C1CNC(c2cc(Cl)nc(Cl)c2)=NN1Cc1ccccc1 [Compound 190]
Cucumber Powdery Mildew (CPM) protectant fungicide data, percent control (Sphaerotheca fuliginea): 0 percent control | Rice Blast (RB) protectant fungicide data, percent control (Pyricularia oryzae): 80 percent control

CCCCN1N=C(c2ccc(Cl)c(Cl)c2)N(Cc2ccc(OC)c(OC)c2)CC1=O [Compound 200]
Cucumber Powdery Mildew (CPM) protectant fungicide data, percent control (Sphaerotheca fuliginea): 0 percent control | Rice Blast (RB) protectant fungicide data, percent control (Pyricularia oryzae): 85 percent control

C=CC(=O)N1CC(=O)N(CCCC)N=C1c1cc(Cl)cc(Cl)c1 [Compound 138]
Cucumber Powdery Mildew (CPM) protectant fungicide data, percent control (Sphaerotheca fuliginea): 0 percent control | Rice Blast (RB) protectant fungicide data, percent control (Pyricularia oryzae): 99 percent control

CCC#CCN1CC(=O)N(CCCC)N=C1c1ccc(Cl)c(Cl)c1 [Compound 180]
Cucumber Powdery Mildew (CPM) protectant fungicide data, percent control (Sphaerotheca fuliginea): 90 percent control | Rice Blast (RB) protectant fungicide data, percent control (Pyricularia oryzae): 95 percent control

O=C1CNC(c2ccc(Cl)c(Cl)c2)=NN1c1cccc(Cl)c1 [Compound 196]
Cucumber Powdery Mildew (CPM) protectant fungicide data, percent control (Sphaerotheca fuliginea): 0 percent control | Rice Blast (RB) protectant fungicide data, percent control (Pyricularia oryzae): 99 percent control

COC(=O)SN1CC(=O)N(CC(F)(F)F)N=C1c1cc(Cl)cc(Cl)c1 [Compound 14, 1-(2,2,2-trifluoroethyl)-3-(3,5-dichlorophenyl)-4-(methoxycarbonylthio)-4,5-dihydro-1,2,4-triazin-6-one]
pest or weed control at 300 g/ha (Sphaerotheca fuliginea): 85% | pest or weed control at 300 g/ha (Pyricularia oryzae): 100%

C#CCN1CC(=O)N(CC#C)N=C1c1cccc(Br)c1 [Compound 226]
Cucumber Powdery Mildew (CPM) protectant fungicide data, percent control (Sphaerotheca fuliginea): 0 percent control | Rice Blast (RB) protectant fungicide data, percent control (Pyricularia oryzae): 50 percent control

CCc1ccc(C2=NN(CC(F)(F)F)C(=O)CN2)cc1 [Compound 150]
Cucumber Powdery Mildew (CPM) protectant fungicide data, percent control (Sphaerotheca fuliginea): 50 percent control | Rice Blast (RB) protectant fungicide data, percent control (Pyricularia oryzae): 100 percent control

CCCCN1N=C(C)NC(c2cccc(OC)c2)C1=O (stereo not drawn) [Compound 80]
Cucumber Powdery Mildew (CPM) protectant fungicide data, percent control (Sphaerotheca fuliginea): 50 percent control | Rice Blast (RB) protectant fungicide data, percent control (Pyricularia oryzae): 0 percent control

N#CCCn1nc(-c2ccc(-c3ccc([N+](=O)[O-])cc3)cc2)ncc1=O [Compound 276]
Cucumber Powdery Mildew (CPM) protectant fungicide data, percent control (Sphaerotheca fuliginea): 0 percent control | Rice Blast (RB) protectant fungicide data, percent control (Pyricularia oryzae): 85 percent control

CCc1ccc(C2=NN(CCc3ccccc3)C(=O)CN2)cc1 [Compound 189]
Cucumber Powdery Mildew (CPM) protectant fungicide data, percent control (Sphaerotheca fuliginea): 75 percent control | Rice Blast (RB) protectant fungicide data, percent control (Pyricularia oryzae): 80 percent control

CCCCCn1nc(-c2cc(Cl)c(C)c(Cl)c2)ncc1=O [Compound 257]
Cucumber Powdery Mildew (CPM) protectant fungicide data, percent control (Sphaerotheca fuliginea): 50 percent control | Rice Blast (RB) protectant fungicide data, percent control (Pyricularia oryzae): 95 percent control

O=c1cnc(-c2ccc(F)c(Br)c2)nn1CC(F)(F)F [Compound 290]
Cucumber Powdery Mildew (CPM) protectant fungicide data, percent control (Sphaerotheca fuliginea): 50 percent control | Rice Blast (RB) protectant fungicide data, percent control (Pyricularia oryzae): 100 percent control

CCCCN1N=C(c2ccc(Oc3ccccc3)cc2)NCC1=O [Compound 3, 1-Butyl-3-(4-phenoxyphenyl)-4,5-dihydro-1,2,4-triazin-6-one]
pest or weed control at 300 g/ha (Sphaerotheca fuliginea): 0% | pest or weed control at 300 g/ha (Pyricularia oryzae): 80%

O=C1CNC(c2ccc(Cl)cc2Cl)=NN1CC(F)(F)F [Compound 73]
Cucumber Powdery Mildew (CPM) protectant fungicide data, percent control (Sphaerotheca fuliginea): 75 percent control | Rice Blast (RB) protectant fungicide data, percent control (Pyricularia oryzae): 85 percent control

O=C1CNC(c2ccccc2)=NN1 [Compound 32]
Cucumber Powdery Mildew (CPM) protectant fungicide data, percent control (Sphaerotheca fuliginea): 50 percent control | Rice Blast (RB) protectant fungicide data, percent control (Pyricularia oryzae): 75 percent control

CCCCN1N=C(c2ccc(Cl)c(Cl)c2)N(C(=O)C(=O)OC)CC1=O [Compound 85]
Cucumber Powdery Mildew (CPM) protectant fungicide data, percent control (Sphaerotheca fuliginea): 50 percent control | Rice Blast (RB) protectant fungicide data, percent control (Pyricularia oryzae): 100 percent control

O=C1CNC(c2cccc(F)c2)=NN1CC(F)(F)F [Compound 84]
Cucumber Powdery Mildew (CPM) protectant fungicide data, percent control (Sphaerotheca fuliginea): 85 percent control | Rice Blast (RB) protectant fungicide data, percent control (Pyricularia oryzae): 80 percent control

CCCCN1N=C(c2ccc3ccccc3c2)NCC1=O [Compound 119]
Cucumber Powdery Mildew (CPM) protectant fungicide data, percent control (Sphaerotheca fuliginea): 0 percent control | Rice Blast (RB) protectant fungicide data, percent control (Pyricularia oryzae): 99 percent control

CCCCN1N=C(c2cc(Cl)cc(Cl)c2)N(C(=O)OCI)CC1=O [Compound 16, 1-(n-butyl)-3-(3,5-dichlorophenyl)-4-(iodomethyloxycarbonyl)-4,5-dihydro-1,2,4-triazin-6-one]
pest or weed control at 300 g/ha (Sphaerotheca fuliginea): 75% | pest or weed control at 300 g/ha (Pyricularia oryzae): 90%

C=C(C)C1NC(c2ccc(Cl)c(Cl)c2)=NN(CCCC)C1=O (stereo not drawn) [Compound 203]
Cucumber Powdery Mildew (CPM) protectant fungicide data, percent control (Sphaerotheca fuliginea): 0 percent control | Rice Blast (RB) protectant fungicide data, percent control (Pyricularia oryzae): 85 percent control

CCCCn1nc(-c2ccc(OC)cc2)ncc1=O [Compound 244]
Cucumber Powdery Mildew (CPM) protectant fungicide data, percent control (Sphaerotheca fuliginea): 50 percent control | Rice Blast (RB) protectant fungicide data, percent control (Pyricularia oryzae): 100 percent control

CCCN1N=C(c2ccc(F)cc2)NCC1=O [Compound 148]
Cucumber Powdery Mildew (CPM) protectant fungicide data, percent control (Sphaerotheca fuliginea): 80 percent control | Rice Blast (RB) protectant fungicide data, percent control (Pyricularia oryzae): 80 percent control

CCCCN1N=C(c2cc3ccccc3s2)NCC1=O [Compound 162]
Cucumber Powdery Mildew (CPM) protectant fungicide data, percent control (Sphaerotheca fuliginea): 50 percent control | Rice Blast (RB) protectant fungicide data, percent control (Pyricularia oryzae): 95 percent control

C#CCN1N=C(c2cccc(F)c2)NCC1=O [Compound 225]
Cucumber Powdery Mildew (CPM) protectant fungicide data, percent control (Sphaerotheca fuliginea): 0 percent control | Rice Blast (RB) protectant fungicide data, percent control (Pyricularia oryzae): 80 percent control

COC(=O)SN1CC(=O)N(CC(F)(F)F)N=C1c1cc(Cl)cc(Cl)c1 [Compound 292]
Cucumber Powdery Mildew (CPM) protectant fungicide data, percent control (Sphaerotheca fuliginea): 75 percent control | Rice Blast (RB) protectant fungicide data, percent control (Pyricularia oryzae): 99 percent control

C=CCOC(=O)N1CC(=O)N(CCCC)N=C1c1cc(Cl)cc(Cl)c1 [Compound 132]
Cucumber Powdery Mildew (CPM) protectant fungicide data, percent control (Sphaerotheca fuliginea): 50 percent control | Rice Blast (RB) protectant fungicide data, percent control (Pyricularia oryzae): 85 percent control

O=c1cnc(-c2ccccc2F)nn1CC(F)(F)F [Compound 263]
Cucumber Powdery Mildew (CPM) protectant fungicide data, percent control (Sphaerotheca fuliginea): 85 percent control | Rice Blast (RB) protectant fungicide data, percent control (Pyricularia oryzae): 80 percent control

C=CCOC(=O)N1CC(=O)N(CC(F)(F)F)N=C1c1cc(Cl)cc(Cl)c1 [Compound 134]
Cucumber Powdery Mildew (CPM) protectant fungicide data, percent control (Sphaerotheca fuliginea): 50 percent control | Rice Blast (RB) protectant fungicide data, percent control (Pyricularia oryzae): 80 percent control

C=COC(=O)N1CC(=O)N(CC(F)(F)F)N=C1c1cc(Cl)cc(Cl)c1 [Compound 113]
Cucumber Powdery Mildew (CPM) protectant fungicide data, percent control (Sphaerotheca fuliginea): 75 percent control | Rice Blast (RB) protectant fungicide data, percent control (Pyricularia oryzae): 99 percent control

O=C1CNC(c2ccc(Cl)cc2)=NN1Cc1ccccc1 [Compound 30]
Cucumber Powdery Mildew (CPM) protectant fungicide data, percent control (Sphaerotheca fuliginea): 75 percent control | Rice Blast (RB) protectant fungicide data, percent control (Pyricularia oryzae): 85 percent control

Cc1cc(C)cc(C2=NN(CC(F)(F)F)C(=O)CN2)c1 [Compound 296]
Cucumber Powdery Mildew (CPM) protectant fungicide data, percent control (Sphaerotheca fuliginea): 75 percent control | Rice Blast (RB) protectant fungicide data, percent control (Pyricularia oryzae): 98 percent control

C#CCN1N=C(c2ccc(F)c(Br)c2)NCC1=O [Compound 218]
Cucumber Powdery Mildew (CPM) protectant fungicide data, percent control (Sphaerotheca fuliginea): 80 percent control | Rice Blast (RB) protectant fungicide data, percent control (Pyricularia oryzae): 98 percent control

CCCCN1N=C(C)NC(c2ccccc2C)C1=O (stereo not drawn) [Compound 76]
Cucumber Powdery Mildew (CPM) protectant fungicide data, percent control (Sphaerotheca fuliginea): 25 percent control | Rice Blast (RB) protectant fungicide data, percent control (Pyricularia oryzae): 0 percent control

C=CCOC(=O)N1CC(=O)N(CCCC)N=C1c1ccc(Cl)c(Cl)c1 [Compound 172]
Cucumber Powdery Mildew (CPM) protectant fungicide data, percent control (Sphaerotheca fuliginea): 0 percent control | Rice Blast (RB) protectant fungicide data, percent control (Pyricularia oryzae): 98 percent control

CCOc1ccc(-c2ncc(=O)n(-c3ccc(Cl)cc3)n2)cc1 [Compound 274]
Cucumber Powdery Mildew (CPM) protectant fungicide data, percent control (Sphaerotheca fuliginea): 0 percent control | Rice Blast (RB) protectant fungicide data, percent control (Pyricularia oryzae): 85 percent control

O=C1C(O)NC(c2ccccn2)=NN1CC(F)(F)F (stereo not drawn) [Compound 53]
Cucumber Powdery Mildew (CPM) protectant fungicide data, percent control (Sphaerotheca fuliginea): 0 percent control | Rice Blast (RB) protectant fungicide data, percent control (Pyricularia oryzae): 75 percent control

C#CCN1CC(=O)N(CC#C)N=C1c1ccc(Cl)c(Cl)c1 [Compound 216]
Cucumber Powdery Mildew (CPM) protectant fungicide data, percent control (Sphaerotheca fuliginea): 80 percent control | Rice Blast (RB) protectant fungicide data, percent control (Pyricularia oryzae): 98 percent control
